System: chemotherapy-induced myelosuppression in ES-SCLC patients
Assay: Study G1T28-03 Part 1 DLTs and myelosuppression endpoints (with topotecan)
Format: in vivo, human
Source text: G1T28-03 (NCT02514447) was a multicentre Phase Ib/IIa study in patients with previously treated ES-SCLC [14]. Patients were aged ≥ 18 years and had histologically or cytologically confirmed ES-SCLC that had progressed during or after prior first- or second-line chemotherapy, measurable disease per RECIST version 1.1, an ECOG performance status of 0–2, and adequate organ function. Part 1 was a Phase Ib, open-label, dose-finding portion. Part 2 was a Phase IIa, randomized, double-blind, placebo-controlled portion. […] In Part 1 of the study, blood samples for PK analysis were collected at prespecified time points on Cycle 1 Day 1 and Cycle 1 Day 4 for all patients.

[1] = G1T28-03 Part 1, 200 mg/m2 + topotecan […]2 (n = 2)
[2] = G1T28-03 Part 1, 240 mg/m2 + topotecan 0.75 mg/m2 (n = 8)
[3] = G1T28-03 Part 1, 240 mg/m2 + topotecan 1.00 mg/m2 (n = 8)
[4] = G1T28-03 Part 1, 280 mg/m2 + topotecan 0.75 mg/m2 (n = 7)
[5] = G1T28-03 Part 1, total (n = 32)

- patients reporting DLTs (G1T28-03 Part 1, 280 mg/m2 + topotecan 0.75 mg/m2): 2 of 7
Compound: CN1CCN(c2ccc(Nc3ncc4cc5n(c4n3)C3(CCCCC3)CNC5=O)nc2)CC1 [trilaciclib]
- MAHE, event rate [1]: 0.403 per week
- Mean ANC Nadir in Cycle 1 [1]: 0.20 (0.000) ×109/L
- Occurrence of ESA administrations [1]: 2 (100) n (%)
- Occurrence of FN [1]: 0 n (%)
- Occurrence of G-CSF administration [1]: 2 (100) n (%)
- Occurrence of Grade 3 or 4 decreased hemoglobin laboratory values [1]: 2 (100) n (%)
- Occurrence of Grade 3 or 4 decreased platelet count values [1]: 2 (100) n (%)
- Occurrence of Grade 3 or 4 hematologic laboratory abnormalities [1]: 2 (100.0) n (%)
- Occurrence of IV antibiotic use [1]: 2 (100) n (%)
- Occurrence of RBC transfusions on/after Week 5 [1]: 2 (100) n (%)
- Occurrence of SN [1]: 2 (100) n (%)
- Occurrence of infection SAEs [1]: 2 (100) n (%)
- Occurrence of platelet transfusions [1]: 0 n (%)
- Occurrence of pulmonary infection SAEs [1]: 1 (50.0) n (%)
- DSN in Cycle 1, mean (SD) [2]: 0 (0.0) days
- MAHE, event rate [2]: 0.037 per week
- Mean ANC Nadir in Cycle 1 [2]: 1.31 (0.650) ×109/L
- Occurrence of ESA administrations [2]: 1 (12.5) n (%)
- Occurrence of FN [2]: 0 n (%)
- Occurrence of G-CSF administration [2]: 4 (50.0) n (%)
- Occurrence of Grade 3 or 4 decreased hemoglobin laboratory values [2]: 3 (37.5) n (%)
- Occurrence of Grade 3 or 4 decreased platelet count values [2]: 0 n (%)
- Occurrence of Grade 3 or 4 hematologic laboratory abnormalities [2]: 7 (87.5) n (%)
- Occurrence of IV antibiotic use [2]: 1 (12.5) n (%)
- Occurrence of RBC transfusions on/after Week 5 [2]: 1 (12.5) n (%)
- Occurrence of SN [2]: 0 n (%)
- Occurrence of infection SAEs [2]: 0 n (%)
- Occurrence of platelet transfusions [2]: 0 n (%)
- Occurrence of pulmonary infection SAEs [2]: 0 n (%)
- DSN in Cycle 1, mean (SD) [3]: 3 (5.5) days
- MAHE, event rate [3]: 0.073 per week
- Mean ANC Nadir in Cycle 1 [3]: 0.63 (0.341) ×109/L
- Occurrence of ESA administrations [3]: 1 (12.5) n (%)
- Occurrence of FN [3]: 0 n (%)
- Occurrence of G-CSF administration [3]: 3 (37.5) n (%)
- Occurrence of Grade 3 or 4 decreased hemoglobin laboratory values [3]: 3 (37.5) n (%)
- Occurrence of Grade 3 or 4 decreased platelet count values [3]: 1 (12.5) n (%)
- Occurrence of Grade 3 or 4 hematologic laboratory abnormalities [3]: 7 (87.5) n (%)
- Occurrence of IV antibiotic use [3]: 1 (12.5) n (%)
- Occurrence of RBC transfusions on/after Week 5 [3]: 2 (25.0) n (%)
- Occurrence of SN [3]: 3 (37.5) n (%)
- Occurrence of infection SAEs [3]: 1 (12.5) n (%)
- Occurrence of platelet transfusions [3]: 0 n (%)
- Occurrence of pulmonary infection SAEs [3]: 1 (12.5) n (%)
- DSN in Cycle 1, mean (SD) [4]: 2 (3.6) days
- MAHE, event rate [4]: 0.085 per week
- Mean ANC Nadir in Cycle 1 [4]: 0.86 (0.594) ×109/L
- Occurrence of ESA administrations [4]: 0 n (%)
- Occurrence of FN [4]: 1 (14.3) n (%)
- Occurrence of G-CSF administration [4]: 2 (28.6) n (%)
- Occurrence of Grade 3 or 4 decreased hemoglobin laboratory values [4]: 1 (14.3) n (%)
- Occurrence of Grade 3 or 4 decreased platelet count values [4]: 2 (28.6) n (%)
- Occurrence of Grade 3 or 4 hematologic laboratory abnormalities [4]: 7 (100.0) n (%)
- Occurrence of IV antibiotic use [4]: 2 (28.6) n (%)
- Occurrence of RBC transfusions on/after Week 5 [4]: 1 (14.3) n (%)
- Occurrence of SN [4]: 2 (28.6) n (%)
- Occurrence of infection SAEs [4]: 0 n (%)
- Occurrence of platelet transfusions [4]: 1 (14.3) n (%)
- Occurrence of pulmonary infection SAEs [4]: 0 n (%)
- DSN in Cycle 1, mean (SD) [5]: 3 (5.1) days
- MAHE, event rate [5]: 0.107 per week
- Occurrence of ESA administrations [5]: 5 (15.6) n (%)
- Occurrence of FN [5]: 1 (3.1) n (%)
- Occurrence of G-CSF administration [5]: 14 (43.8) n (%)
- Occurrence of Grade 3 or 4 decreased hemoglobin laboratory values [5]: 12 (37.5) n (%)
- Occurrence of Grade 3 or 4 decreased platelet count values [5]: 8 (25.0) n (%)
- Occurrence of Grade 3 or 4 hematologic laboratory abnormalities [5]: 30 (93.8) n (%)
- Occurrence of IV antibiotic use [5]: 8 (25.0) n (%)
- Occurrence of RBC transfusions on/after Week 5 [5]: 9 (28.1) n (%)
- Occurrence of SN [5]: 10 (31.3) n (%)
- Occurrence of infection SAEs [5]: 5 (15.6) n (%)
- Occurrence of platelet transfusions [5]: 2 (6.3) n (%)
- Occurrence of pulmonary infection SAEs [5]: 4 (12.5) n (%)
